Source: patent US5583000A, “Protease-binding compounds and methods of use” (priority 1993, dated 1996)
Values after ≈ are worked out from the molar mass of the structure shown. Values joined by “and” are separate entries in the source; they are usually repeats but may differ in a detail not shown here. Equal entries are not always repeated. Where two headings read alike, the source gives them in different places. Square brackets hold non-standard residues; d marks the D form. Ends that are not written are not given here. Peptide text beside a SMILES is read from it. * marks the point of attachment. Sta = CC(C)C[C@H](N)[C@@H](O)CC(=O)O; Isovaleryl = CC(C)CC(=O)*

Experiments:
[1] = physchem
[2] = target: T1, HIV-1 protease (Human immunodeficiency virus type 1 group M subtype B, UniProt P03369); assay: biochemical
[3] = target: T1, HIV-1 protease; assay type: cell-based; design: fused to amino acids 5 (Asp) to 179 (Trp) of the pol region; human superoxide dismutase (hSOD, 153 residues) (N); Phe-Arg-Glu are pol residues) (N); additional Pro residue of pol (C); expressed in transfected cells; host or cells: E. coli strain D1210 harboring plasmid pSOD/PR179
[4] = target: T2, HIV-2 protease (Human immunodeficiency virus type 2 subtype A, UniProt P04584); assay: biochemical
T2 construct: the coding region of the 99-amino acid protease; made in house; host or cells: Saccharomyces cerevisiae strain AB110, plasmid pHIV2PR115
T2 sequence (P04584 514-612 limits assumed): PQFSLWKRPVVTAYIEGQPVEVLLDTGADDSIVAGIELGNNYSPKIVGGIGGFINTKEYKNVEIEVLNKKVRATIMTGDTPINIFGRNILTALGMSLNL

[5] = in vitro
[6] = tested on: HIV; assay: HeLa/T4 infectivity assay with replication-defective virions from transfected COS-7 cells; assay type: cell-based; conditions: for colony reduction (summary in words): Table 5 concentrations
[7] = tested on: p24; assay: p24 core antigen ELISA of virus from treated COS-7 cells
Experimental: Drug treatment. The compounds were added 48 hours post-transfection, at the peak of virus production, and the incubation was restricted to a 4-hour period. […] Culture media were adjusted to the desired concentration of these compounds just prior to the addition of the media to cells. To avoid precipitation, the compounds were aliquoted first to a tube in sufficient DMSO to yield a 1.0% final concentration, and subsequently the culture medium was added quickly and vortexed. The culture medium was collected after 4 hours of incubation of the cells with each of the compounds. This culture supernatant is the source of virus for measurement of infectivity as well as levels of p24 and other capsid proteins.
p24 Core antigen ELISA assay. An ELISA kit purchased from NEN/Dupont was used to determine the amount of p24 present in culture media or virus preparations. This capture assay uses a monoclonal antibody that preferentially binds p24 while it reacts with larger capsid protein precursors to a very limited extent. The assay was carded out using the manufacturer's indications. Samples were pre-treated with 1% Triton to inactivate the virus.
Virus isolation by ultracentrifugation. The culture medium was filtered through a 0.45 μm syringe filter and was then centrifuged to remove any precipitate. The medium was then spun through a cushion of 20% sucrose in PBS in an SW41 Beckman rotor for 1.5 hours at 35K and 4° C. The pelleted material was collected.
Following incubation of virus-producing cells with various concentrations of the test compounds, the virus particles were isolated by ultracentrifugation. These particles were disrupted using Triton X-100 and the amount of p24 capsid protein was quantitated by ELISA.

[8] = in vitro; conditions: african green monkey, cos-7 cells
Experimental: MTT cell viability assay. This is a quantitative colorimetric assay for mammalian cell survival and proliferation. Cells were seeded in 96 well plates and grown to near 50% confluency. A serial dilution (1 to 500 μM) of each compound was then prepared in culture media and added (250 μL/well) in duplicate. All culture media was adjusted to a final concentration of 1.0% DMSO (volume basis). The cells were allowed to grow for either 4 hours or 24 hours. The culture media were then removed, and the cells were washed with phosphate buffered saline (PBS) before 50 μL of MTT solution (1 mg/mL in PBS) was added. After incubating for 4 hours at 37° C., the reaction was quenched by adding 160 μL of acidified isopropanol and mixing to dissolve purple crystals. The absorbance was determined within 30 minutes at 570 nm on an ELISA plate reader.
The cytotoxic effect of the inhibitors was determined using the MTT stain viability assay.

[9] = Solubility
[10] = target: HIV-1 PR Q7K (Human immunodeficiency virus type 1 group M subtype B, UniProt P03369, Q497K); assay type: biochemical; conditions: read-out: kinact (μM) HIV-1; inhibitor concentration resulting in half-maximal inactivation; pH 8.0, 25° C.
[11] = target: T3, HIV-2 PR (Human immunodeficiency virus type 2 subtype A, UniProt P04584); assay: biochemical; assay type: biochemical; conditions: for KI (inactivation): read-out: kinact (μM) HIV-2
T3 construct: HIV-2 PR (at a final concentration of 30 μg/mL); made in house
T3 sequence (P04584 514-612 limits assumed): as above

[12] = target: HIV-1 PR C95M (Human immunodeficiency virus type 1 group M subtype B, UniProt P03369, C585M); assay: Protection experiment, incorporation of radio-labelled UCSF84; assay type: binding
[13] = target: T4, HIV-1 PR (Human immunodeficiency virus type 1 group M subtype B, UniProt P03369); conditions: pH 8
[14] = target: HIV protease (Human immunodeficiency virus type 1 group M subtype B, UniProt P04585); conditions: cited from earlier work
[15] = target: T4, HIV-1 PR; assay: biochemical; assay type: binding; conditions: preincubation 10 μM one hour, then radio-labelled UCSF84 200 μM
[16] = HIV-1 Protease IC50 (μM) 1M NaCl
[17] = Human immunodeficiency virus 1, COS-7, 4 h, read-out: % p24 Relative to Untreated
[18] = HIV-1 Protease IC50 (μM) 1M NaCl, 1M NaCl
[19] = Human immunodeficiency virus 1, COS-7, 4 h, read-out: Reduction of p24 IC50 (μM)
[20] = inhibitor concentration resulting in half-maximal inactivation, pH 8.0, 25° C.
[21] = pH 8, maximum inactivation rate, read-out: Vinact (min^-1 × 10^3) HIV-2 (converted)

## OC(CCCN1CCC(O)(c2ccc(Cl)cc2)CC1)c1ccc(F)cc1 (stereo not shown) [UCSF2]
[1]
  solubility: > 250 µM
[2]
  HIV-1 Protease Therapeutic Index (LD50 /IC50): 0.5
[2]; [16]
  IC50: 200 µM
[3]
  inhibition of protein processing (intermediate bands): An increase in the band representing an intermediate in the vicinity of the 29-kDa marker
[4]
  IC50: 700 µM

## OC1(c2ccc(Cl)cc2)CCN(CCCC2(c3ccc(F)cc3)SCCS2)CC1 [UCSF8, (1,2-ethanethioacetal)-4-(4-(p-chlorophenyl)-4-hydroxypiperidinyl]-4'-fluorobutyrophenone]
[1]
  solubility: > 250 µM
[5]
  CC50 at 6 h: 60 µM
[6]; Human immunodeficiency virus 1, HeLaT4, 20 μM, 4-hour treatment, read-out: Hela/T4 Infection % Colony Reduction
  inhibition at 20 µM: 85%
[6]
  colony reduction (summary in words): significant colony reduction
[7]; [17]
  activity at 20 µM: 62%
[2]
  HIV-1 Protease Therapeutic Index (LD50 /IC50): 4
  inhibition of HIV-1 protease compared with other compounds: 50% inhibition is achieved at a much lower inhibitor concentration relative to haloperidol
[2]; [16]
  IC50: 15 µM
[2]; IC50
  IC50: 73 µM and 32 µM and 15 µM
[4]; 1M NaCl
  IC50: 100 µM
[8]
  CC50 at 4 h: 45 µM
  cytotoxicity at 4 h, 20 µM: 55%

## OC1(CCCCc2ccccc2)CCC(O)(c2ccccc2)CC1 (stereo not shown) [UCSF29, 4-(4'-phenylbutyl)-1-phenyl-1,4-cyclohexanediol]
[5]
  CC50 at 6 h: 160 µM
[6]; Human immunodeficiency virus 1, HeLaT4, 250 μM, 4-hour treatment, read-out: Hela/T4 Infection % Colony Reduction
  inhibition at 250 µM: 100%
[6]
  colony reduction (summary in words): significant colony reduction
[7]; [17]
  activity at 250 µM: 35%
[9]
  solubility: > 250 µM
[2]; 0.2M NaCl, read-out: IC50
  IC50: 1400 µM
[2]; 0.5M NaCl, read-out: IC50
  IC50: 625 µM
[2]; 1.0M NaCl, read-out: IC50
  IC50: 128 µM
[2]; FIGS. 5-8, three salt concentrations
  inhibition of HIV-1 protease compared with other compounds: not unlike that for haloperidol
[2]; [18]
  IC50: 128 µM
[2]; LD50/IC50
  HIV-1 Protease Therapeutic Index (LD50 /IC50): 1.2
[8]
  CC50 at 4 h: 180 µM
  cytotoxicity at 4 h, 250 µM: 80%

## C=C(CCC[N+]1([O-])CCC(O)(c2ccc(Cl)cc2)CC1)c1ccc(F)cc1 (stereo not shown) [UCSF42]
[1]
  solubility: 500 µM (≈ 195 µg/mL)
[5]
  CC50 at 6 h: 160 µM
[6]; Human immunodeficiency virus 1, HeLaT4, 75 μM, 4-hour treatment, read-out: Hela/T4 Infection % Colony Reduction
  inhibition at 75 µM: 92%
[6]
  colony reduction (summary in words): significant colony reduction
[7]; [17]
  activity at 75 µM: 45%
[2]
  HIV-1 Protease Therapeutic Index (LD50 /IC50): 5.3
  inhibition of HIV-1 protease compared with other compounds: better inhibitor than haloperidol but not as potent an inhibitor as UCSF8
[2]; [16]
  IC50: 30 µM
[4]; 1M NaCl
  IC50: 67 µM
[8]
  CC50 at 4 h: 300 µM
  cytotoxicity at 4 h, 75 µM: 0%

## OC1(C#CC2(c3ccccc3)CO2)CCN(Cc2ccccc2)CC1 (stereo not shown) [UCSF70, N-benzyl-4-hydroxy-4-(3,4-epoxy-3-phenyl-1-butyny)piperidine]
[5]
  CC50 at 6 h: 120 µM
[7]; [19]
  IC50: 25 µM
[9]
  solubility: > 500 µM
[2]; [18]
  IC50: 750 µM
[10]
  KI (inactivation): 407 ± 61.6 µM
[8]
  CC50 at 4 h: 70 µM
  CC50 at 24 h: 35 µM

## O=C(c1ccc(N2CCC(O)(c3ccc(Cl)cc3)CC2)cc1)C1(CC#CCO)CC1 [UCSF83]
[5]
  CC50 at 6 h: > 250 µM
[9]
  solubility: > 250 µM
[2]; [18]
  IC50: 15 µM
[4]; 1M NaCl
  IC50: 78 µM

## OC1(c2ccc(Cl)cc2)CCN(CC#CC2(c3ccccc3)CO2)CC1 (stereo not shown) [UCSF84]
[11]; [20]
  KI (inactivation): 283 ± 9.3 µM
[11]; [21]
  kinact: 0.0146 min⁻¹
[1]
  solubility: > 250 µM
[12]; 200 μM, one hour, 25° C.
  incorporation of radioactivity relative to HIV-1 PR: approximately 50%
[5]
  CC50 at 6 h: 100 to 165 µM
[7]; read-out: Reduction of p24 IC50, 4 hours incubation, ELISA
  IC50: 50 µM
[13]
  reversibility of inhibition after dilution and buffer exchange: irreversible modification of the enzyme
[2]; [16]
  IC50: 150 µM
[10]
  KI (inactivation): 521 ± 56.6 µM
[8]
  CC50 at 4 h: 120 µM
  CC50 at 24 h: 50 µM

## O=C(C#CCN1CCC(O)(c2ccc(Cl)cc2)CC1)c1ccccc1 [UCSF86, 4-(4'-(4"-chlorophenyl)-4'-hydroxypiperidinyl)-1-phenylbut-2-yn-1-one]
[11]; [20]
  KI (inactivation): 131 ± 4.4 µM
[11]; [21]
  kinact: 0.0076 min⁻¹
[1]
  solubility: > 60 µM
[5]
  CC50 at 6 h: 15 to 20 µM
[2]; [16]
  IC50: 20 µM
[10]
  KI (inactivation): 62.4 ± 3.1 µM
[8]
  CC50 at 4 h: 15 µM
  CC50 at 24 h: < 10 µM

## O=C(/C=C/C[N+]1([O-])CCC(O)(c2ccc(Cl)cc2)CC1)c1ccc(F)cc1 (stereo not shown) [UCSF115]
[11]; [20]
  KI (inactivation): 116 ± 4.7 µM
[11]; [21]
  kinact: 0.0052 min⁻¹
[1]
  solubility: 250 µM (≈ 97.5 µg/mL)
[5]
  CC50 at 6 h: 250 µM
[7]; [19]
  IC50: 75 µM
[2]; [16]
  IC50: 30 µM
[10]
  KI (inactivation): 144 ± 14.8 µM
[8]
  CC50 at 4 h: 250 µM
  CC50 at 24 h: 200 µM

## O=C(C=C(CN1CCC(O)(c2ccc(Cl)cc2)CC1)SCCO)c1ccccc1 [UCSF178, 4-(4'-(4"-chlorophenyl)-4'-hydroxypiperidinyl)-3-(2'-hydroxyethylthio)-1-phenyl-2-buten-1-one]
[11]; [20]
  KI (inactivation): 120 ± 9.9 µM
[11]; [21]
  kinact: 0.0046 min⁻¹
[1]
  solubility: 150 µM (≈ 64.8 µg/mL)
[5]
  CC50 at 6 h: > 250 µM
[2]; [16]
  IC50: 140 µM
[10]
  KI (inactivation): 232 ± 10.8 µM
[8]
  CC50 at 4 h: > 250 µM
  CC50 at 24 h: 75 µM

## O=C(/C=C/CN1CCC(O)(c2ccc(Cl)cc2)CC1)c1ccc(F)cc1 [UCSF191]
[11]; pH 8, read-out: Vinact (min^-1 × 10^3) HIV-2
  kinact: 0.0121 min⁻¹
[11]; hiv-2 pr, pH 8
  KI (inactivation): 156 ± 2.3 µM
[1]
  solubility: > 150 µM
[5]
  CC50 at 6 h: 22 µM
[2]; [16]
  IC50: 80 µM
[10]
  KI (inactivation): 57.2 ± 7.1 µM

## O=C(C#CCN1CCC(O)(c2ccc(Cl)cc2)CC1)c1ccc(-c2ccccc2)cc1 [UCSF231, 4-(4'-(4"-chlorophenyl)-4'-hydroxypiperidinyl)-1-p-biphenylbut-2-yn-1-one]
[5]
  CC50 at 6 h: 10 µM
[2]
  HIV-1 Protease Therapeutic Index (LD50 /IC50): < 0.1
[2]; [16]
  IC50: 100 µM
[10]
  KI (inactivation): 385 ± 58 µM
[8]
  CC50 at 4 h: < 5 µM
  CC50 at 24 h: < 5 µM

## CC(C)CC(=O)N[C@H](C(=O)N[C@H](C(=O)N[C@@H](CC(C)C)[C@@H](O)CC(=O)N[C@@H](C)C(=O)N[C@@H](CC(C)C)[C@@H](O)CC(=O)O)C(C)C)C(C)C [pepstatin A] (Isovaleryl-VV[Sta]A[Sta]-OH)
[14]
  inhibition of protein processing by HIV protease: partially inhibit protein processing

## Val-Ser-Asn-Ler-.psi.[CH(OH)CH2 ]-Val-Ile-Val (VSNLVIV; numbers in words are those of the source; also: Leu-Val peptide bond replaced by hydroxyethylene isostere ψ[CH(OH)CH2]) [Compound U-85548]
[12]; preincubation 10 μM, then radio-labelled UCSF84
  incorporation after preincubation of the enzyme: sharply reduced
[15]
  blocking of radioactivity incorporation to HIV-1 PR: approximately 65%
